# According to patent US20140274971A1, “Systems and Methods of Using Chemically Bound Antibiotics Activated by Infections” (Osteoceramics, Inc., priority 2013, published 2014):
# Like-named read-outs stand apart in the source and are kept apart here.
# Columns and labels:
# selected bacterium = format: cell-based; details: for effectiveness of other tetracyclines (in words): other experiments, bound to implant
# From the text: They were rinsed with deionized water and dried. […] The solutions were saved for bioactivity testing.
# staphylococcus aureus = test: Repeated Kirby-Bauer test, ciprofloxacin-doped cement (Example 4); format: cell-based
# From the text: A Kirby-Bauer test using staphylococcus aureus was repeated for ciprofloxacin-doped cement with more detail. All specimens, and the paper control, were 6 mm diameter.
# Pseudo. A. = format: cell-based, Psuedomonus aeruginosa
# From the text: (§1) The setting solution is aqueous calcium chloride.
# Staph. A. = format: cell-based, Staphylococcus aureus
# From the text: as §1
# Bacillus cereus = test: Kirby-Bauer method, tetracycline treated disks, periodontal bacteria; format: cell-based; details: disks treated with 0.1 mg/ml, 1 mg/ml and 10 mg/ml; 10^4 to 10^6 levels
# From the text: (§2) Because tooth roots are in an anaerobic environment, bacteria were selected from those commonly encountered in periodontal disease for evaluation by the Kirby-Bauer method. They were ATCCJ177i: Bacillus cereus, Corynebacterium spp., Esccherichia coli, Pasteurella multocida and Staphylococcus spp. Each was doped on Mueller-Hinton agar at 10^4 to 10^6 levels.
# Corynebacterium spp. = test: as above; format: cell-based; details: disks treated with 0.1 mg/ml, 1 mg/ml and 10 mg/ml; 10^4 to 10^6 levels
# From the text: as §2
# Esccherichia coli = test: as above; format: cell-based; details: disks treated with 0.1 mg/ml, 1 mg/ml and 10 mg/ml; 10^4 to 10^6 levels
# From the text: as §2
# Pasteurella multocida = test: as above; format: cell-based; details: disks treated with 0.1 mg/ml, 1 mg/ml and 10 mg/ml; 10^4 to 10^6 levels
# From the text: as §2
# Staphylococcus spp. = test: as above; format: cell-based; details: disks treated with 0.1 mg/ml, 1 mg/ml and 10 mg/ml; 10^4 to 10^6 levels
# From the text: as §2
# bacterial growth = test: Mueller-Hinton agar cultures of concretes made of tetracycline-treated grains; format: cell-based; details: concretes of treated grains with gypsum, calcium aluminate or zinc phosphate cement; cured 24 hours
# Method: These were separated into sizes with sieves, to produce a range of size fractions; 12-20 mesh, 20-35 mesh, 35-65 mesh, 65-270 mesh, and minus 325 mesh. […] The tetracycline bonds to the tricalcium component of the grain surfaces. […] So the tricalcium phosphate phase is interconnected throughout the volume and is exposed at 50% of the surface area. […] The surface area was calculated assuming the particles were spheres of the median radius for the sieve fraction. […] The grains changed from white to orange as a result of the treatment. These grains were used to make cements for filling bone voids, combining 65% of one fraction with 15% of the second, finer, fraction in the series, 5% of the −325 mesh fraction and 15% of cement. Different cements were used, including gypsum, calcium aluminate and zinc phosphate cements. These concretes set in 5 to 10 minutes in a wet environment. After curing 24 hours at 100% humidity and 37° C., disks of these concretes were tested in Mueller-Hinton agar cultures to determine if they would inhibit bacterial growth. […] Thus the concrete prostheses have the properties needed to treat bone voids. Note that the size of the coarse fraction 12-20, […] or 35-65 will depend on the maximum particle size that must not exceed the maximum size of the void to be filled.
# [1] = 10^−2 gr/gram of calcium aluminate, 1 Day
# [2] = 10^−2 gr/gram of calcium aluminate, 1 Hour
# [3] = 10^−2 gr/gram of calcium aluminate, 1 Week
# [4] = 10^−2 grams ciprofloxacin per gram of calcium aluminate, one week
# [5] = 10^−3 gr/gram of calcium aluminate, 1 Day
# [6] = 10^−3 gr/gram of calcium aluminate, 1 Hour
# [7] = 10^−3 gr/gram of calcium aluminate, 1 Week
# [8] = 10^−4 gr/gram of calcium aluminate, 1 Day
# [9] = 10^−4 gr/gram of calcium aluminate, 1 Week
# [10] = 10^−4 gr/gram of calcium aluminate, 1 Hour
smiles,measurement,setting,value
CN(C)[C@@H]1C(O)=C(C(N)=O)C(=O)[C@@]2(O)C(O)=C3C(=O)c4c(O)cccc4[C@@](C)(O)[C@H]3[C@H](O)[C@@H]12 [oxytetracycline],effectiveness of other tetracyclines (in words),selected bacterium,effective
"O=C(O)c1cn(C2CC2)c2cc(N3CCNCC3)c(F)cc2c1=O [ciprofloxacin, Ciprofloxacin]",zone compared with control disk (in words),staphylococcus aureus; 10^−2 g/g concentration,equivalent to the control disk
same,zone compared with control disk (in words),staphylococcus aureus; 10^−3 g/g,somewhat less
same,effect of rinsing the pellet to remove surface antibiotic,staphylococcus aureus; rinsed vs not rinsed,had no effect
same,Kirby-Bauer Inhibition Zone,E. Coli; [1],37 mm
same,Kirby-Bauer Inhibition Zone,E. Coli; [2],49 mm
same,Kirby-Bauer Inhibition Zone,E. Coli; [3],44 mm
same,inhibition (in words),E. Coli; [4],effective for one week
same,Kirby-Bauer Inhibition Zone,E. Coli; [5],27 mm
same,Kirby-Bauer Inhibition Zone,E. Coli; [6],42 mm
same,Kirby-Bauer Inhibition Zone,E. Coli; [7],33 mm
same,Kirby-Bauer Inhibition Zone,E. Coli; [8],22 mm
same,Kirby-Bauer Inhibition Zone,"E. Coli; 10^−4 gr/gram of calcium aluminate, 1 Hour after setting, saline 37° C.",34 mm
same,Kirby-Bauer Inhibition Zone,E. Coli; [9],23 mm
same,Kirby-Bauer Inhibition Zone,Pseudo. A.; [1],35 mm
same,Kirby-Bauer Inhibition Zone,Pseudo. A.; [2],44 mm
same,Kirby-Bauer Inhibition Zone,Pseudo. A.; [3],39 mm
same,inhibition (in words),Pseudo. A.; [4],effective for one week
same,Kirby-Bauer Inhibition Zone,Pseudo. A.; [5],19 mm
same,Kirby-Bauer Inhibition Zone,Pseudo. A.; [6],34 mm
same,Kirby-Bauer Inhibition Zone,Pseudo. A.; [7],21 mm
same,Kirby-Bauer Inhibition Zone,Pseudo. A.; [8],0 mm
same,Kirby-Bauer Inhibition Zone,Pseudo. A.; [10],21 mm
same,Kirby-Bauer Inhibition Zone,Pseudo. A.; [9],0 mm
same,Kirby-Bauer Inhibition Zone,Staph. A.; [1],29 mm
same,Kirby-Bauer Inhibition Zone,Staph. A.; [2],34 mm
same,Kirby-Bauer Inhibition Zone,Staph. A.; [3],32 mm
same,inhibition (in words),Staph. A.; [4],effective for one week
same,Kirby-Bauer Inhibition Zone,Staph. A.; [5],5 mm
same,Kirby-Bauer Inhibition Zone,Staph. A.; [6],27 mm
same,Kirby-Bauer Inhibition Zone,Staph. A.; [7],21 mm
same,Kirby-Bauer Inhibition Zone,Staph. A.; [8],0 mm
same,Kirby-Bauer Inhibition Zone,Staph. A.; [10],7 mm
same,Kirby-Bauer Inhibition Zone,Staph. A.; [9],0 mm
"CN(C)[C@@H]1C(=O)C(C(N)=O)=C(O)[C@@]2(O)C(=O)C3=C(O)c4c(O)cccc4[C@@](C)(O)[C@H]3C[C@@H]12 [tetracycline, Tetracycline]",bacterial growth adjacent to the disks (in words),Bacillus cereus,prevented
same,bacterial growth adjacent to the disks (in words),Corynebacterium spp.,prevented
same,bacterial growth adjacent to the disks (in words),Esccherichia coli,prevented
same,bacterial growth adjacent to the disks (in words),Pasteurella multocida,prevented
same,bacterial growth adjacent to the disks (in words),Staphylococcus spp.,prevented
same,inhibition zones (in words),selected bacterium; disks made with concentrations of 1 and 10 mg/ml,effective in creating large inhibition zones
same,inhibition of bacterial growth by concrete disks (in words),bacterial growth,perform in the same way as the disks in example one
CN(C)[C@@H]1C(O)=C(C(N)=O)C(=O)[C@@]2(O)C(O)=C3C(=O)c4c(O)ccc(Cl)c4[C@@H](O)[C@H]3C[C@@H]12 [democlotetracycline],effectiveness of other tetracyclines (in words),selected bacterium,effective
